Laboratory results: patent US20220265646A1, “PIEZO AGONISTS FOR PREVENTING OR REVERTING ABNORMAL AMYLOID DEPOSITION” (ITÄ-SUOMEN YLIOPISTO, priority 2019, published 2022)

What was measured:
native Piezo1Rs = molecular target: T1, native Piezo1Rs (Homo sapiens, UniProt Q92508); assay: Calcium imaging of Yoda1-evoked Ca2+ influx in hiPSC-derived microglia; assay type: cell-based; conditions: 50 μM Yoda1, control hiPSC microglia pre-incubated 15 min in BS, n=6
T1 construct: endogenous in cells; host or cells: human iPSC-derived microglia
T1 sequence (Q92508 whole entry): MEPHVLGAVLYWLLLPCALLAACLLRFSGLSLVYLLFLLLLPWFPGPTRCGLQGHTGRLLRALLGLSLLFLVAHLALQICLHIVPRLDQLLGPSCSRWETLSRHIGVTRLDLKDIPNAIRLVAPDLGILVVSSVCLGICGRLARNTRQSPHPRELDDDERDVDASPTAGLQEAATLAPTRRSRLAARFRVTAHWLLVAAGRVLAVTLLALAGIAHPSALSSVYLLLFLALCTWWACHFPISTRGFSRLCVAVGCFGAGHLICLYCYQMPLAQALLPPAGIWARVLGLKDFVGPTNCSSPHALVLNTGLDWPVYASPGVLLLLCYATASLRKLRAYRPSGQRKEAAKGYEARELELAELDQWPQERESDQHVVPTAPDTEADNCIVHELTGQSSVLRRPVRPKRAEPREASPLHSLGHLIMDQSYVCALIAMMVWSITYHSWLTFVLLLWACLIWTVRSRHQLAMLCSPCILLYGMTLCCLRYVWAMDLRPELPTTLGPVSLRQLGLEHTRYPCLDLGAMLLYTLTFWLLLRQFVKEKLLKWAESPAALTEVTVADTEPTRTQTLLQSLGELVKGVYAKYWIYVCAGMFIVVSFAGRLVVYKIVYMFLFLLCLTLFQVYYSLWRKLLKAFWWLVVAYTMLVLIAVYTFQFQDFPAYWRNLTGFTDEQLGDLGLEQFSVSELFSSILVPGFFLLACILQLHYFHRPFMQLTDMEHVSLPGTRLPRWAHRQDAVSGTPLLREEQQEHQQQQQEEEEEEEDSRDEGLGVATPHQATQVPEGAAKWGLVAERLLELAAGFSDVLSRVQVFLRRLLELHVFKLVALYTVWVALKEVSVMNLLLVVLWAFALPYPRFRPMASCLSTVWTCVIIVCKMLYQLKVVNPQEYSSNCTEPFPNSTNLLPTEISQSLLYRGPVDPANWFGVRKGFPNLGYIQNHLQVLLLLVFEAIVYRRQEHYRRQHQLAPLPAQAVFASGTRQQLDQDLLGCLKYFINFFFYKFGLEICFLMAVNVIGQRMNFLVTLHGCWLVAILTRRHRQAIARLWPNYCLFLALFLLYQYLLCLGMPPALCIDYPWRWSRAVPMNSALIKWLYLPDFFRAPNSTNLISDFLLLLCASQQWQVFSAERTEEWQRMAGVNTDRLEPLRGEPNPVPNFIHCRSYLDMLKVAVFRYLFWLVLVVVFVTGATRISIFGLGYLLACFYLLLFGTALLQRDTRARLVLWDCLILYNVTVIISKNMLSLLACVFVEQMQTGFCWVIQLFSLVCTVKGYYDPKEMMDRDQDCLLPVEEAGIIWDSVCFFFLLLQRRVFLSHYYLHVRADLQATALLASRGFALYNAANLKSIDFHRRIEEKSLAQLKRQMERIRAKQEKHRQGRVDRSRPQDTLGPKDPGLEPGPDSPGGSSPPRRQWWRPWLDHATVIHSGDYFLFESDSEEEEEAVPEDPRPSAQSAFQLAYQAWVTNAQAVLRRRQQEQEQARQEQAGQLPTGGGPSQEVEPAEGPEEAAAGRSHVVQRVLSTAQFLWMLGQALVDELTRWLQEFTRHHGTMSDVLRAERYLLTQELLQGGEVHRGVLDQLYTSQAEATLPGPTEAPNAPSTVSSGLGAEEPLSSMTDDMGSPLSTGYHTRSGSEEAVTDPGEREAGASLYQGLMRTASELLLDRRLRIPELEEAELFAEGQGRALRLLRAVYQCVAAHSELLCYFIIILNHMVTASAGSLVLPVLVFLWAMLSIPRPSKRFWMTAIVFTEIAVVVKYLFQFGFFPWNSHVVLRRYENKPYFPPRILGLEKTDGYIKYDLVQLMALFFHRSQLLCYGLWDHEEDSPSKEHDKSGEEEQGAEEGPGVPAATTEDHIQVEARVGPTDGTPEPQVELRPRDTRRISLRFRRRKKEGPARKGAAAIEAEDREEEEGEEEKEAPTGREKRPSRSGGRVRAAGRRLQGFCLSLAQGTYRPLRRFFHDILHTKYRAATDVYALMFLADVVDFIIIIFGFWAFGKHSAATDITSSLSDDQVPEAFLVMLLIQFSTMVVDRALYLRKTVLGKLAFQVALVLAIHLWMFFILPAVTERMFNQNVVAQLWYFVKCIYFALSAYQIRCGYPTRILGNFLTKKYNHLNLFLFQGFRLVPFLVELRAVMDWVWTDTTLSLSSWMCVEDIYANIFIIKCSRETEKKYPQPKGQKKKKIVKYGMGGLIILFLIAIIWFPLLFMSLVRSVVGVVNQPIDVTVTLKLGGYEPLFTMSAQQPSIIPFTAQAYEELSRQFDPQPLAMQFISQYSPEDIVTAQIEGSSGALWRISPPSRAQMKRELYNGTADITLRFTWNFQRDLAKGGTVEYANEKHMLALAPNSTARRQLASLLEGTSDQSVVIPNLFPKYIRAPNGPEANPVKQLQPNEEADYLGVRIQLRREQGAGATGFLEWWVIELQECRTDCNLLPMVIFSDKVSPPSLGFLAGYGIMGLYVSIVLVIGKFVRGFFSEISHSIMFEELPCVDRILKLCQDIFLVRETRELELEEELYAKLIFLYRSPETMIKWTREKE
Procedure: To study the calcium influx evoked by native Piezo1 Rs expressed in microglia cells the present inventors used short Yoda1 applications (2 s, 50 μM if not otherwise specified). For this purpose, human IPSO derived microglia cells and SV-40 (immortalized human microglia) cells were seeded on 7 mm cover slips 1 day prior to the imaging experiment. Cells were loaded with the calcium-sensitive fluorescent dye Fluo-4AM (5 μM) for 30 min at 37° C. Followed by wash-incubation for 15 min in Ab 20 μM, 50 μM GdCI and basic solution (BS) as a control at 37° C. The basic solution containing the following (BS, in mM): 2.5 KCl, 152 NaCl, 10 glucose, 2 CaCl2, and 10 HEPES at pH 7.4. Fluorescence was visualized using monochromatic light source (TILL Photonics GmbH) using Ex/Im 494/[…] and a CCD camera (SensiCam). Chemicals were applied using a fast perfusion system (RSC-200, BioLogic Science). To quantify the difference in the amplitude of calcium transients, the ratio values were normalized by subtracting a baseline and further divided by the amplitude of the calcium transient to the 2 sec application of the ionomycin. Data were pre-analyzed offline using the FEI offline analysis (TILL Photonics), and further analysis was automatized using MatLab. Quantitative data were expressed as means±SEM unless otherwise stated. Number of experiments is indicated by n. Significance assessed with the ANOVA test or Mann-Whitney t test for non-parametric data. Statistically significant differences were set at*p<0.05 and **p<0.01.
Differentiation of microglia. Differentiation of microglia was carried out as previously described with minor modifications (Abud et al., 2017). Shortly, on DO, iPSCs were dissociated to single cells with 0.5 mM EDTA or Accutase and were replated at a density of 6-,000-16,000 cells/cm2 on Matrigel in E8, 0.5% penicillin/streptomycin (P/S, 50 IU/50 […]), 5 ng/ml BMP4, 25 ng/ml activin a (both from Peprotech or Miltenyi Biotec), 1 μM CHIR 99021 (Axon or Stem Cell Technologies) and 10 μM Y-27632 to induce mesodermal differentiation. […]

hiPSC-microglia = assay: Cytotoxicity assay (Cytotox Green, Incucyte S3); assay type: cell-based; conditions: 2-20 μM Yoda1, 60-hour time point, n=3 experiments
Procedure: Cytotoxicity assay. The cytotoxicity of in vitro cultures was assessed with Cytotox Green assay (Essen Bioscience) using Incucyte S3 Live-Cell Analysis System (Essen Bioscience, Ann Arbor, Mich., USA, #4647). Microglia were seeded for the assay at density of 15 000 cells per well on poly-D-lysine (PDL, Sigma, #P0899) coated Nunclon (Thermo Scientific, #167008) or ImageLock 96-well plates (Essen Bioscience, #4379). On the assay day, cells were treated with 0.1-20 μM Yoda1 (Tocris, #5586) in PM medium supplemented with 250 nM Cytotox Green reagent (Essen Bioscience, #4633). Equal volume of DMSO (Sigma, #D2650) was used as a vehicle and 200 μM MPP+(Sigma, #D048) was applied as a positive control. Cells were live-imaged in IncuCyte S3 at 37° C. and 5% CO2 every 3 hours for 3 days to obtain cell death over time. One to two 10× images per well were captured using the phase-contrast mode to obtain confluency and the green fluorescence mode to obtain fluorescent intensity. Quantification was performed using IncuCyte S3 Software (2019B). Green fluorescence was separated from background with a top-hat thresholding and all settings were kept constant between different conditions. […]

`Clc1cccc(Cl)c1CSc1nnc(-c2cnccn2)s1` [Yoda1] was tested. Which “Ca2+ transients evoked by Yoda1 short (2 s) application, amplitude normalized to ionomycin” value (native Piezo1Rs) did it give?
Its value is 1.15±0.36.

What about the “microglial cell death (cytotoxicity dye uptake)” value (hiPSC-microglia) of the same compound?
Its value is “protects hiPSC-microglia from cell death”.
